System: DC
Experiment: LPS induced IL-6 secretion from single dendritic cells in droplets
Assay type: cell-based, mouse
Conditions: single DC co-encapsulated with LPS; versus droplets with no LPS
Text: FIG. 16A is a schematic illustration of […] carried out in a microdroplet.
The activation and monitoring of live single cells for secretion and cell surface markers have been measured simultaneously. In particular, droplet based technology can be applied to simultaneously stimulate mouse DC maturation with an immunological adjuvant, lipopolysaccharide (LPS), and to monitor two phenotypic markers of DCs. The maturation phenotype of the live DC was followed by measuring CD86 expression and IL-6 secretion. DC were co-encapsulated with LPS and bioassay reagents (microsphere sensors and antibodies). This method made it possible to distinguish the responses of individual cells to LPS stimulation in the confined volume of droplets. In addition to CD86, LPS induced IL-6 secretion could be monitored from the same encapsulated single DCs (FIG. 16B). The signal was detected in droplets after 10 min in the array.

lipopolysaccharide [LPS]
IL-6 levels in droplets: significantly higher

— US10802016B2, “Microdroplet based bioassay platform” (Northeastern University, priority 2015, dated 2020)
